In US6008230A, “Quinoline compounds as H^+ -ATPases” (Fujisawa Pharmaceutical Co., Ltd., priority 1995, dated 1999):
Structures can show the parent of a compound that is named as a salt.

Legend:
[1] = system: PTH-induced bone resorption (calvariae from Wistar rats); test: Bone organ culture: inhibition of PTH-induced bone resorption; format: cell-based; conditions: 144 h; Wistar rat calvariae; 10^-8 M human PTH (1-34); concentration 1×10^-6 M; six days
Experimental: Test 2 (Bone organ culture) Test Method […] In control dishes, PTH was not added. Control and PTH control were exposed to an equivalent concentration of the vehicle. Six days later, the concentration of calcium ((Ca]) in the medium was measured by methylxylenol blue method and the percentage of inhibition of PTH-induced bone resorption was calculated according to following formula [formula] Cp: [Ca] in PTH control dishes CD: [Ca] in the test compound dishes C0 : [Ca] in control dishes

[2] = system: vacuolar type H^+ -ATPase; test: Inhibition of vacuolar type H^+ -ATPase proton transport; format: biochemical; conditions: microsomes from mouse peritoneal macrophages; acridine orange uptake; concentration 1×10^-6 M; pH 7.0
Experimental: Test 1 (Inhibition of vacuolar type H^+ -ATPase proton transport): Test Method (a) Preparation of microsomes from mouse peritoneal macrophages Seven-week-old male ddY mice were injected intraperitoneally with 2 ml of 3% thioglycolate medium. After 3-5 days, the mice were decapitated, and the peritoneal macrophages were obtained by peritoneal lavage with 5-6 ml of Hanks' balanced salt solution (HBSS). The cells were washed twice with cold HBSS. Vesicles were prepared from the cells, homogenized in a Douncee homogenizer (20 strokes) in 10 ml of 250 mM sucrose, 5 mM Tris, 1 mM EGTA, 1 mM KHCO3 and 1 mM dithiothreitol, pH 7.0, at 4° C. After an initial centrifugation (1000× g for 5 minutes), the supernatant was centrifuged 6000× g for 15 minutes) to remove mitochondria and lysosomes. The supernatant was centrifuged at 42000× g for 30 minutes, and microsomal pellet was collected and stored at -80° C. (b) Measurement of proton transport Proton transport was assayed with a dual-wavelength spectrophotometer by monitering uptake of acridine orange (Reference 540 nm, Measurement 492 nm) [H. C. Blair, J. Cell. Biol., 102, 1164 (1986)] with aliquot of membrane vesicles suspended in […] of assay buffer containing 150 mM KCl, 10 mM bis-tris-propane, 2 mM MgCl2, […], […] oligomycin and test compounds (concentration: 1×10^-6 M), pH 7.0. The reaction was initiated by addition of 1 mM ATP. Results were expressed as the percent of control.

With C=CCc1cnc2c(NC(=O)c3c(Cl)cccc3Cl)cccc2c1Sc1ncc[nH]1 [28 (dihydrochloride), 8-(2,6-Dichlorobenzoylamino)-4-(imidazol-2-ylthio)-3-allylquinoline] the inhibition at 1 µM [1] was 100% and the “Inhibition (%) of vacuolar type H^+ -ATPase proton transport” value (“Inhibition (%) of vacuolar type H^+” below) [2] was 94%.

In the case of Cl.N#Cc1cnc2c(NC(=O)c3c(Cl)cccc3Cl)cccc2c1Cn1ccnc1 [52 (hydrochloride), 3-cyano-8-(2,6-dichlorobenzoylamino)-4-(imidazol-1-ylmethyl)quinoline hydrochloride], the inhibition at 1 µM [1] is reported as 100% and the “Inhibition (%) of vacuolar type H^+” value [2] is reported as 100%.

In the case of C=Cc1cnc2c(NC(=O)c3c(Cl)cccc3Cl)cccc2c1CC(=O)NCc1ccccn1 [71-(2), 8-(2,6-dichlorobenzoylamino)-4-[(pyridin-2-ylmethyl)carbamoylmethyl]-3-vinylquinoline], the inhibition at 1 µM [1] is reported as 100% and the “Inhibition (%) of vacuolar type H^+” value [2] is reported as 93%.

With O=C(Nc1cccc2c(-n3cccn3)ccnc12)c1c(Cl)cccc1Cl [85-(2) (free), 8-(2,6-Dichlorobenzoylamino)-4-(pyrazol-1-yl)quinoline] the inhibition at 1 µM [1] was 100% and the “Inhibition (%) of vacuolar type H^+” value [2] was 97%.

In the case of C#Cc1cnc2c(NC(=O)c3c(Cl)cccc3Cl)cccc2c1 [Example 5, 8-(2,6-dichlorobenzoylamino)-3-ethynylquinoline], the inhibition at 1 µM [1] is reported as 98% and the “Inhibition (%) of vacuolar type H^+” value [2] is reported as 100%.
